Measurements from ChEMBL document CHEMBL1221184, “Identifying off-target effects and hidden phenotypes of drugs in human cells” (Nat Chem Biol, 2006).
Active and inactive are the calls of the source. The rule behind the calls is not given here. Positions of bridges follow the written chain, without caps; N, C: chain ends. Non-standard residues stand in square brackets, D forms with d. Residues, ends and D or L forms follow the SMILES beside them. Nle = CCCC[C@H](N)C(=O)O

Tests used:
PC-3 [1] = test: Antiproliferative activity against human PC3 cells at 200 nM after 120 hrs by MTT assay relative to DMSO; type: functional
PC-3 [2] = test: Antiproliferative activity against human PC3 cells at 20 uM after 120 hrs by MTT assay relative to DMSO; type: functional
PC-3 [3] = test: Antiproliferative activity against human PC3 cells at 3 uM after 120 hrs by MTT assay relative to DMSO; type: functional
[4] = target: Transcription factor Jun (Homo sapiens) (UniProt P05412); test: Activation of c-Jun expressed in HEK293 cells assessed as induction of protein interaction with Pin1 by EYFP based reporter gene assay; type: cell-based
[5] = target: Transcription factor Jun (Homo sapiens) (UniProt P05412); test: Inhibition of c-Jun expressed in HEK293 cells assessed as induction of protein interaction in presence of camptothecin with Pin1 by EYFP based reporter gene assay; type: cell-based
[6] = target: Cyclin-dependent kinase 1 (Homo sapiens) (UniProt P06493); test: Effect on Cdc2 expressed in HEK293 cells assessed as effect on Cdc2:Cdc25C interaction complexes in presence of camptothecin by EYFP and/or YFP Venus fragment based reporter gene assay; type: cell-based
[7] = target: Cyclin-dependent kinase 1 (Homo sapiens) (UniProt P06493); test: Effect on Cdc2 expressed in HEK293 cells assessed as effect on Cdc2:Cdc25A interaction complexes in presence of camptothecin by EYFP and/or YFP Venus fragment based reporter gene assay; type: cell-based
Cofilin-1 (Homo sapiens) [8] = target: Cofilin-1 (Homo sapiens) (UniProt P23528); test: Effect on cofilin1 expressed in HEK293 cells assessed as effect on cofilin1; Limk2 interaction complexes in presence of camptothecin by EYFP and/or YFP Venus fragment based reporter gene assay; type: cell-based
[9] = target: Cyclin-dependent kinase 1 (Homo sapiens) (UniProt P06493); test: Inhibition of Cdc2 expressed in HEK293 cells assessed as effect on Cdc2:Cdc25C interaction complexes in presence of camptothecin by EYFP and/or YFP Venus fragment based reporter gene assay; type: cell-based
HEK293 [10] = test: Inhibition of proteasome expressed in HEK293 cells assessed as effect on CyclinD1-CDK4 interaction complexes by EYFP and/or YFP Venus fragment based reporter gene assay
HEK293 [11] = test: Inhibition of proteasome expressed in HEK293 cells assessed as effect on p53-p53 interaction complexes by EYFP and/or YFP Venus fragment based reporter gene assay
HEK293 [12] = test: Inhibition of proteasome expressed in HEK293 cells assessed as effect on p53-Chk1 interaction complexes by EYFP and/or YFP Venus fragment based reporter gene assay
Cofilin-1 (Homo sapiens) [13] = target: Cofilin-1 (Homo sapiens) (UniProt P23528); test: Effect on cofilin1 expressed in HEK293 cells assessed as effect on cofilin1; Limk2 interaction complexes by EYFP and/or YFP Venus fragment based reporter gene assay; type: cell-based
HEK293 [14] = test: Inhibition of proteasome expressed in HEK293 cells assessed as effect on Pin1-Jun interaction complexes by EYFP and/or YFP Venus fragment based reporter gene assay
HEK293 [15] = test: Inhibition of proteasome expressed in HEK293 cells assessed as effect on E6:E6AP interaction complexes by EYFP and/or YFP Venus fragment based reporter gene assay
PC-3 [16] = test: Antiproliferative activity against human PC3 cells at 25 uM after 120 hrs by MTT assay relative to DMSO; type: functional
PC-3 [17] = test: Antiproliferative activity against human PC3 cells at 100 nM after 120 hrs by MTT assay relative to DMSO; type: functional
PC-3 [18] = test: Antiproliferative activity against human PC3 cells at 5 uM after 120 hrs by MTT assay relative to DMSO; type: functional
HEK293 [19] = test: Inhibition of HSP90 expressed in HEK293 cells assessed as effect on Akt1:p27 interaction complexes by EYFP and/or YFP Venus fragment based reporter gene assay; type: cell-based
PC-3 [20] = test: Antiproliferative activity against human PC3 cells at 300 nM after 120 hrs by MTT assay relative to DMSO; type: functional
PC-3 [21] = test: Antiproliferative activity against human PC3 cells at 50 ug/ml after 120 hrs by MTT assay relative to DMSO; type: functional
PC-3 [22] = test: Antiproliferative activity against human PC3 cells at 15 uM after 120 hrs by MTT assay relative to DMSO; type: functional
PC-3 [23] = test: Antiproliferative activity against human PC3 cells at 30 uM after 120 hrs by MTT assay relative to DMSO; type: functional
PC-3 [24] = test: Antiproliferative activity against human PC3 cells at 1.5 uM after 120 hrs by MTT assay relative to DMSO; type: functional
PC-3 [25] = test: Antiproliferative activity against human PC3 cells at 2.5 uM after 120 hrs by MTT assay relative to DMSO; type: functional

Chain of Cofilin-1 (Homo sapiens) (P23528 whole entry, the tested form may be a part): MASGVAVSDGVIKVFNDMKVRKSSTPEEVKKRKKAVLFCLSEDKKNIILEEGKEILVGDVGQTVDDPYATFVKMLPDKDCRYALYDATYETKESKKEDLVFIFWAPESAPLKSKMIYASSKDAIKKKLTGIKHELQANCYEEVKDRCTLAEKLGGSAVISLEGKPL
Chain of Transcription factor Jun (Homo sapiens) (P05412 whole entry, the tested form may be a part): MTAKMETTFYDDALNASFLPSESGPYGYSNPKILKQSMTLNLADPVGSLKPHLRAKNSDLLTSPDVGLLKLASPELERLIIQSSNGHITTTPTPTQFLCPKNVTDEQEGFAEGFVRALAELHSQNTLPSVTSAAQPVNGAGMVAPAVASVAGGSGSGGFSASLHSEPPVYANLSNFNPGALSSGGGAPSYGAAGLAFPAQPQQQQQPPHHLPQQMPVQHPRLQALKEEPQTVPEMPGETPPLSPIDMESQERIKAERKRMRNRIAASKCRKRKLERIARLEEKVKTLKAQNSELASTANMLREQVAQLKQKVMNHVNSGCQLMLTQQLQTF
Chain of Cyclin-dependent kinase 1 (Homo sapiens) (P06493 whole entry, looked up, the tested form may be a part): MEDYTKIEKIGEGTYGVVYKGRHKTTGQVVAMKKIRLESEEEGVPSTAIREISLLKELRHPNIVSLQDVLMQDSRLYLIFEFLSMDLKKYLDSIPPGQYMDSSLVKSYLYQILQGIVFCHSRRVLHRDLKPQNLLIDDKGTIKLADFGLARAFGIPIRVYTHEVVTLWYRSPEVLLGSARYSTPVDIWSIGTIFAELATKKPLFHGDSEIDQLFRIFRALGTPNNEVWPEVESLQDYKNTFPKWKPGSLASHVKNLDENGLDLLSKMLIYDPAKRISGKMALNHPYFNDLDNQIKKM

With `COc1cc2ncnc(Nc3cccc(Br)c3)c2cc1OC` the “fold change (FC)” value (PC-3 [1]) was 0.983.
For `COc1cccc(-c2cc(=O)c3ccccc3o2)c1N`, the “fold change (FC)” value (PC-3 [2]) was 0.901.
`CN(CCOc1ccc(C[C@H](Nc2ccccc2C(=O)c2ccccc2)C(=O)O)cc1)c1ccccn1` was tested, and the “fold change (FC)” value (PC-3 [3]) was 0.956.
`CC(C)OC(=O)C(C)(C)Oc1ccc(C(=O)c2ccc(Cl)cc2)cc1` was tested, and the Activity [4] was “Active”, the Activity [5] was “Active” and the Activity [6] was “Active”. The Activity [7] was “Active”, the Activity (Cofilin-1 (Homo sapiens) [8]) was “Active” and the inhibition [9] was “Active”.
In the case of `CCCC[C@@H](C=O)NC(=O)[C@H](CC(C)C)NC(=O)[C@H](CC(C)C)NC(C)=O` (Ac-Leu-Leu-[Nle]-aldehyde), the inhibition (HEK293 [10]) is reported as “Active”, the inhibition (HEK293 [11]) is reported as “Active” and the inhibition (HEK293 [12]) is reported as “Active”. The Activity (Cofilin-1 (Homo sapiens) [13]) was “Active”, the inhibition (HEK293 [14]) was “Active” and the inhibition (HEK293 [15]) was “Active”. For the same molecule, the “fold change (FC)” value (PC-3 [16]) was 0.26.
`CC[C@H](C)[C@H](NC(=O)[C@@H](NC(=O)[C@H](CC(=O)O)NC(=O)[C@H](CCC(N)=O)NC(=O)[C@H](Cc1cnc[nH]1)NC(=O)[C@@H]1CSSC[C@H](N)C(=O)N[C@@H](CO)C(=O)N[C@H]2CSSC[C@H](NC(=O)[C@H](CCC(=O)O)NC(=O)[C@H](CCCCN)NC(=O)[C@H](CC(=O)O)NC(=O)[C@H]([C@@H](C)O)NC(=O)[C@H](CCSC)NC(=O)[C@H](CC(=O)O)NC(=O)[C@H](CCCCN)NC2=O)C(=O)N[C@@H](CC(C)C)C(=O)N[C@@H](Cc2ccc(O)cc2)C(=O)N[C@@H](Cc2ccccc2)C(=O)N1)C(C)C)C(=O)N[C@@H](Cc1c[nH]c2ccccc12)C(=O)O` (H-CSCKDMTDKECLYFCHQDVIW-OH; disulfide 1-15, 3-11) was tested, and the “fold change (FC)” value (PC-3 [17]) was 1.037.
`C=CCNC1=C2C[C@@H](C)C[C@H](OC)[C@H](O)[C@@H](C)/C=C(\C)[C@H](OC(N)=O)[C@@H](OC)/C=C\C=C(/C)C(=O)NC(=CC1=O)C2=O` (stereo in doubt) [TANESPIMYCIN] was tested, and the “fold change (FC)” value (PC-3 [18]) was 0.264 and the inhibition (HEK293 [19]) was “Active”.
In the case of `CC[C@H](C)[C@H](NC(=O)[C@H](Cc1ccc(O)cc1)NC(=O)[C@@H](NC(=O)[C@H](CCCNC(=N)N)NC(=O)[C@@H](N)CC(=O)O)C(C)C)C(=O)N[C@@H](Cc1cnc[nH]1)C(=O)N1CCC[C@H]1C(=O)N[C@@H](Cc1ccccc1)C(=O)O` [ANGIOTENSIN II], the “fold change (FC)” value (PC-3 [20]) is reported as 1.018.
`C[C@H]1CCC/C=C/[C@@H]2C[C@H](O)C[C@H]2[C@H](O)/C=C/C(=O)O1` [BREFELDIN A] was tested, and the “fold change (FC)” value (PC-3 [21]) was 0.245.
For `CC1(COc2ccc(CC3SC(=O)NC3=O)cc2)CCCCC1` (stereo not drawn) [CIGLITAZONE], the “fold change (FC)” value (PC-3 [22]) was 0.934.
For `CCOC(=O)C(C)(C)Oc1ccc(Cl)cc1` [CLOFIBRATE], the Activity [4] was “Active”, the Activity [5] was “Active” and the Activity [6] was “Active”. The “fold change (FC)” value (PC-3 [23]) was 1.021, the Activity [7] was “Active” and the Activity (Cofilin-1 (Homo sapiens) [8]) was “Active”. The inhibition [9] was “Active”.
With `C/C(=C\c1csc(C)n1)[C@@H]1C[C@@H]2O[C@@H]2CCC[C@H](C)[C@H](O)[C@@H](C)C(=O)C(C)(C)[C@@H](O)CC(=O)O1` [EPOTHILONE A] the “fold change (FC)” value (PC-3 [17]) was 0.291.
With `C=C1C[C@@H]2[C@H](CC[C@]3(C)C(=O)CC[C@@H]23)[C@@]2(C)C=CC(=O)C=C12` [EXEMESTANE] the “fold change (FC)” value (PC-3 [24]) was 0.975.
`COC1=C2C[C@@H](C)C[C@H](OC)[C@H](O)[C@@H](C)/C=C(\C)[C@H](OC(N)=O)[C@@H](OC)/C=C\C=C(/C)C(=O)NC(=CC1=O)C2=O` [GELDANAMYCIN] was tested, and the “fold change (FC)” value (PC-3 [25]) was 0.261 and the inhibition (HEK293 [19]) was “Active”.
